From patent US7138361B2, “Herbicidal heterocycles” (E. I. du Pont de Nemours and Company, priority 2000, dated 2006)

Key:
Type in all cases: in vivo
[1] = test system: lambsquarters (Chenopodium album); test: Test C preemergence; details: for Plant response rating (0 to 100), Lambsquarters: Rate 500 g/ha, visual evaluation after 12 to 14 days
In short: (§1)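 Each compound was dissolved in a non-phytotoxic solvent system containing a surfactant and sprayed either on freshly planted seeds (preemergence) or on young plants, 2 to 18 cm high (postemergence). Ratings after 12 to 14 greenhouse days ran from 0, no effect, to 100, complete control.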

[2] = test system: soybean (Glycine max); test: Test C preemergence; details: for Plant response rating (0 to 100), Soybean: Rate 500 g/ha, visual evaluation after 12 to 14 days
In short: as §1

[3] = test system: kochia (Kochia scoparia); test: Test C preemergence; details: for Plant response rating (0 to 100), Kochia: Rate 500 g/ha, visual evaluation after 12 to 14 days
In short: as §1

[4] = test system: corn (Zea mays); test: Test C preemergence; details: for Plant response rating (0 to 100), Corn: Rate 500 g/ha, visual evaluation after 12 to 14 days
In short: as §1

[5] = test system: yellow nutsedge (Cyperus esculentus); test: Test C preemergence; details: for Plant response rating (0 to 100), Nutsedge: Rate 500 g/ha, visual evaluation after 12 to 14 days
In short: as §1

[6] = test system: pigweed (Amaranthus retroflexus); test: Test C preemergence; details: for Plant response rating (0 to 100), Pigweed: Rate 500 g/ha, visual evaluation after 12 to 14 days
In short: as §1

[7] = test system: johnsongrass (Sorghum halepense); test: Test C preemergence; details: for Plant response rating (0 to 100), Johnsongrass: Rate 500 g/ha, visual evaluation after 12 to 14 days
In short: as §1

[8] = test system: Nightshade; test: Test C preemergence
[9] = test system: woolly cupgrass (Eriochloa villosa); test: Test C preemergence; details: for Plant response rating (0 to 100), Cupgrass, Woolly: Rate 500 g/ha, visual evaluation after 12 to 14 days
In short: as §1

[10] = test system: wild oat (Avena fatua); test: Test B postemergence
In short: (§2)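 Greenhouse test: chemicals are formulated in a surfactant-containing non-phytotoxic solvent and applied either preemergence to planted seeds or postemergence to plants 2 to 18 cm tall. Response is rated visually versus controls after 13 to 15 days, 0 meaning no effect and 100 complete control.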

[11] = test system: corn (Zea mays); test: Test B postemergence
In short: as §2

[12] = test system: barnyardgrass (Echinochloa crus-galli); test: Test B postemergence
In short: as §2

[13] = test system: wheat (Triticum aestivum); test: Test B postemergence
In short: as §2

[14] = test system: smallflower flatsedge (Cyperus difformis); test: Test C flooded paddy test; details: for Flatsedge plant response rating: Flooded Paddy, scale 0 to 100, 0 no effect, 100 complete control; for Plant response rating, Flatsedge: flooded paddy test, scale 0 to 100 (0 no effect, 100 complete control)
In short: (§3)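 2-leaf-stage plants, flooded paddy; treated; greenhouse 12–14 days; compared with controls by eye; rated 0–100 (0 none, 100 complete control).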

[15] = test system: duck salad (Heteranthera limosa); test: Test C flooded paddy test; details: for Ducksalad plant response rating: Flooded Paddy, scale 0 to 100, 0 no effect, 100 complete control; for Plant response rating, Ducksalad: flooded paddy test, scale 0 to 100 (0 no effect, 100 complete control)
In short: as §3

[16] = test system: barnyardgrass (Echinochloa crus-galli); test: Test C flooded paddy test; details: for Barnyardgrass plant response rating: Flooded Paddy, scale 0 to 100, 0 no effect, 100 complete control; for Plant response rating, Barnyardgrass: flooded paddy test, scale 0 to 100 (0 no effect, 100 complete control)
In short: as §3

[17] = test system: rice (Oryza saliva); test: Test C flooded paddy test; details: for Rice plant response rating: Flooded Paddy, scale 0 to 100, 0 no effect, 100 complete control; for Plant response rating, Rice: flooded paddy test, scale 0 to 100 (0 no effect, 100 complete control)
In short: as §3

[18] = test system: Nightshade; test: Test C preemergence; details: Rate 500 g/ha, visual evaluation after 12 to 14 days
[19] = test system: Sunflower; test: Test C preemergence; details: Rate 250 g/ha, scale 0 to 100, 0 no effect, 100 complete control
[20] = Rate 125 g/ha, scale 0 to 100, 0 no effect, 100 complete control
[21] = preemergence, Rate 62 g/ha, scale 0 to 100
[22] = preemergence, Rate 250 g/ha, scale 0 to 100, 0 no effect, 100 complete control
[23] = Rate 250 g/ha, scale 0 to 100, 0 no effect, 100 complete control
[24] = Rate 500 g/ha, scale 0 to 100, 0 is no effect, 100 is complete control, 13 to 15 days
[25] = Rate 125 g/ha, scale 0 (no effect) to 100 (complete control), 13 to 15 days

CCCOc1cc(N2CCC(n3ccc(C(C)(C)C)n3)C2=O)ccc1C (centres unmarked) [Compound 107]
40: Plant response rating, Soybean [2, 22] | Plant response rating, Sunflower [19]
70: Plant response rating, Kochia [3, 20] | Plant response rating, Kochia [3, 21] | Ducksalad plant response rating ([15]; Rate 500 g/ha) | Barnyardgrass plant response rating ([16]; Rate 250 g/ha)
80: Plant response rating, Nightshade ([8]; Rate 62 g/ha, scale 0 to 100) | Plant response rating (0 to 100), Cupgrass, Woolly ([9]; preemergence) | Plant response rating, Cupgrass, Woolly [9, 22] | Barnyardgrass plant response rating ([16]; Rate 500 g/ha)
90: Plant response rating, Lambsquarters [1, 21] | Plant response rating, Pigweed [6, 21] | Plant response rating, Nightshade [8, 20] | Plant response rating, Nightshade [8, 23] | Plant response rating (0 to 100), Nightshade [18]
60: Plant response rating (0 to 100), Soybean ([2]; preemergence) | Plant response rating, Cupgrass, Woolly [9, 20] | Flatsedge plant response rating ([14]; Rate 250 g/ha)
85: Plant response rating, Kochia [3, 22]
100: Plant response rating, Lambsquarters [1, 20] | Plant response rating (0 to 100), Lambsquarters ([1]; preemergence) | Plant response rating, Lambsquarters [1, 22] | Plant response rating (0 to 100), Kochia ([3]; preemergence) | Plant response rating (0 to 100), Pigweed ([6]; preemergence) | Flatsedge plant response rating ([14]; Rate 500 g/ha)
10: Plant response rating (0 to 100), Corn ([4]; preemergence)
20: Plant response rating, Johnsongrass [7, 20] | Plant response rating, Barnyardgrass ([16]; Rate 62 g/ha) | Rice plant response rating ([17]; Rate 500 g/ha)
50: Plant response rating (0 to 100), Johnsongrass ([7]; preemergence) | Plant response rating, Johnsongrass [7, 22] | Plant response rating, Cupgrass, Woolly [9, 21] | Plant response rating, Flatsedge ([14]; Rate 125 g/ha)
0: Plant response rating, Corn [4, 20] | Plant response rating, Corn [4, 21] | Plant response rating, Corn [4, 22] | Plant response rating, Nutsedge [5, 20] | Plant response rating, Nutsedge [5, 21] | Plant response rating (0 to 100), Nutsedge ([5]; preemergence) | Plant response rating, Nutsedge [5, 22] | Plant response rating, Pigweed [6, 20] | Plant response rating, Pigweed [6, 22] | Plant response rating, Wild Oat [10, 24] | Plant response rating, Corn [11, 25] | Plant response rating, Corn [11, 24] | Plant response rating, Barnyardgrass [12, 25] | Plant response rating, Barnyardgrass [12, 24] | Plant response rating, Wheat [13, 24] | Ducksalad plant response rating ([15]; Rate 250 g/ha) | Plant response rating, Ducksalad ([15]; Rate 62 g/ha) | Plant response rating, Ducksalad ([15]; Rate 125 g/ha) | Rice plant response rating ([17]; Rate 250 g/ha) | Plant response rating, Rice ([17]; Rate 62 g/ha) | Plant response rating, Rice ([17]; Rate 125 g/ha)
30: Plant response rating, Soybean [2, 20] | Plant response rating, Soybean [2, 21] | Plant response rating, Flatsedge ([14]; Rate 62 g/ha) | Plant response rating, Barnyardgrass ([16]; Rate 125 g/ha)

CC(C)c1cccc(N2CCC(n3ccc(C(C)(C)C)n3)C2=O)c1 (centres unmarked) [Compound 111]
90: Flatsedge plant response rating ([14]; Rate 250 g/ha) | Flatsedge plant response rating ([14]; Rate 500 g/ha)
85: Plant response rating, Lambsquarters [1, 20]
20: Plant response rating, Pigweed [6, 20] | Plant response rating, Pigweed [6, 22] | Plant response rating, Cupgrass, Woolly [9, 20] | Plant response rating, Wheat [13, 20] | Plant response rating, Wheat [13, 24] | Barnyardgrass plant response rating ([16]; Rate 250 g/ha)
80: Plant response rating, Pigweed [6, 21]
25: Plant response rating (0 to 100), Johnsongrass ([7]; preemergence)
30: Barnyardgrass plant response rating ([16]; Rate 500 g/ha)
0: Plant response rating, Soybean [2, 20] | Plant response rating, Soybean [2, 21] | Plant response rating (0 to 100), Soybean ([2]; preemergence) | Plant response rating, Soybean [2, 22] | Plant response rating, Kochia [3, 20] | Plant response rating, Kochia [3, 21] | Plant response rating (0 to 100), Kochia ([3]; preemergence) | Plant response rating, Kochia [3, 22] | Plant response rating, Corn [4, 20] | Plant response rating, Corn [4, 21] | Plant response rating (0 to 100), Corn ([4]; preemergence) | Plant response rating, Corn [4, 22] | Plant response rating, Nutsedge [5, 20] | Plant response rating, Nutsedge [5, 21] | Plant response rating (0 to 100), Nutsedge ([5]; preemergence) | Plant response rating, Nutsedge [5, 22] | Plant response rating, Johnsongrass [7, 20] | Plant response rating, Johnsongrass [7, 21] | Plant response rating, Johnsongrass [7, 22] | Plant response rating, Nightshade ([8]; Rate 62 g/ha, scale 0 to 100) | Plant response rating, Nightshade [8, 20] | Plant response rating, Nightshade [8, 23] | Plant response rating, Cupgrass, Woolly [9, 21] | Plant response rating, Wild Oat [10, 20] | Plant response rating, Corn [11, 20] | Plant response rating, Corn [11, 24] | Plant response rating, Barnyardgrass [12, 20] | Plant response rating, Barnyardgrass [12, 24] | Ducksalad plant response rating ([15]; Rate 250 g/ha) | Ducksalad plant response rating ([15]; Rate 500 g/ha) | Plant response rating, Ducksalad ([15]; Rate 62 g/ha) | Plant response rating, Ducksalad ([15]; Rate 125 g/ha) | Plant response rating, Barnyardgrass ([16]; Rate 62 g/ha) | Plant response rating, Barnyardgrass ([16]; Rate 125 g/ha) | Rice plant response rating ([17]; Rate 250 g/ha) | Rice plant response rating ([17]; Rate 500 g/ha) | Plant response rating, Rice ([17]; Rate 62 g/ha) | Plant response rating, Rice ([17]; Rate 125 g/ha) | Plant response rating (0 to 100), Nightshade [18] | Plant response rating, Sunflower [19]
70: Plant response rating, Lambsquarters [1, 21]
60: Plant response rating (0 to 100), Cupgrass, Woolly ([9]; preemergence) | Plant response rating, Cupgrass, Woolly [9, 22] | Plant response rating, Wild Oat [10, 24] | Plant response rating, Flatsedge ([14]; Rate 125 g/ha)
100: Plant response rating (0 to 100), Lambsquarters ([1]; preemergence) | Plant response rating, Lambsquarters [1, 22]
50: Plant response rating (0 to 100), Pigweed ([6]; preemergence) | Plant response rating, Flatsedge ([14]; Rate 62 g/ha)
